From patent US4578395A, “Certain aralkylaminoalkyl esters of 1,4 dihydropyridines as antihypertensive” (Teijin Limited, priority 1983, dated 1986)
Structures can show the parent of a compound that is named as a salt.

Experiments:
[1] = test system: rats periphery; assay: Vasodilative activity in rats periphery (constant volume blood perfusion); type: in vivo, Male SD strain rats
Description: Male SD strain rats, weighing 350 g to 450 g, were used. They were anesthetized with sodium pentobarbital 60 mg/kg i.p. […] The solution of the test compound was infused into the perfusion blood on the peripheral side with a perfusion pump, and changes in perfusion pressure were measured. The activity of the test compound was determined as the ratio of the relative activity of the test compound against papaverine obtained from the dose-response curves.

[2] = test system: SHR (Spontaneously Hypertensive Rats); assay: Antihypertensive activity in SHR; type: in vivo, Male SHR (Spontaneously Hypertensive Rats); conditions: no anesthesia
Description: Male SHR (14 to 16 weeks old) fasted for more than 16 hours were used. […] When one hour or more passed after the rats woke up out of the ether, they were administered the test compound orally. The blood pressure was measured with the pressure transducer via the catheter inserted into the femoral artery.
The test compound was dissolved in a small quantity of ethanol and diluted with water to be adjusted for administration.
Changes in the mean blood pressure were obtained from the equation mentioned below. The Basic and Clinical Study, vol. 14, p. 4495 (1980) is a useful literature to be referred to for making this kind of experiment. [formula]

[3] = test system: anesthetized rats; assay: Hypotensive activity by intravenous administration in anesthetized rats (Example 23); type: in vivo, Male Wistar rats; conditions: for ED20: Rattus norvegicus, iv, anesthetized Wistar rats about 250 g, read-out: ED20 (dose decreasing mean blood pressure by 20%); for Duration T1/2 (half-life of hypotensive action): i.v., dose 10
Description: (§1) Male Wistar rats weighing about 250 g were used. They were anesthetized with urethane (500 mg/kg) and α-chloralose (100 mg/kg) intraperitoneal injection.
(§2) The test compound was dissolved in a small quantity of ethanol and the solution, which was then diluted with physiological saline to have a final concentration of ethanol kept at 5% or lower, was intravenously injected through a catheter inserted into the femoral vein.
(§3) The blood pressure was recorded with the pressure transducer via the catheter inserted into the common carotid artery of the rats.
(§4) Hypotensive activity of the test compound was indicated by the dose (ED20 μ/kg) required for decreasing the mean blood pressure by 20% as compared with the mean blood pressure before the administration.
(§5) To determine the duration of the hypotensive action of the test compound, half-life of hypotensive action T^1 /2) was measured.

[4] = test system: mean blood pressure; assay: Action on mean blood pressure in anesthetized dog; type: in vivo, male beagle dog; conditions: 10 μg/kg i.v.
Description: (§6) A male beagle dog weighing about 10 kg was anesthetized with sodium pentobarbital (35 mg/kg i.v.). The test compound was dissolved in a small quantity of ethanol, diluted with an isotonic sodium chloride solution, and was injected into the right femoral vein.
The mean blood pressure (MBP) was measured with the pressure transwer via the cannula inserted into the right femoral artery of the male beagle dog. The changes in the blood pressure after the administration of the test compound are shown in percentages in Table 5.

[5] = test system: anesthetized rat; assay: Hypotensive activity by intravenous administration in anesthetized rat (Example 27); type: in vivo, Male Wistar rats; conditions: for ED20: Rattus norvegicus, iv, anesthetized Wistar rats about 300 g, read-out: ED20 (dose decreasing mean blood pressure by 20%); for Duration T1/2: i.v.
Description: as §1, §2, §3, §4, §5
Male Wistar rats weighing about 300 g were used. The measurement of hypotensive activity was conducted according to the same method as Example 23.

[6] = test system: peripheral blood vessels (femoral artery); assay: Action on peripheral blood vessels (femoral blood flow) in anesthetized dog; type: in vivo, male beagle dog; conditions: 3 μg/kg i.v.
Description: as §6
The carotic blood flow (CBF) and the femoral blood flow (FBF) were measured with the electromagnetic blood flowmeter (MFV-1200 made by Japan Photoelectric Co., Ltd.) via probe for measuring the blood flow volume set in the right common carotid artery and the left femoral artery of the male beagle dog respectively.

[7] = test system: platelet aggregation; assay: In vitro inhibitory activity of platelet aggregation; type: cell-based, male Hartley guinea pigs; conditions: Cavia porcellus, Platelet; Conc. 100 μM, AA 75 μM
Description: The in vitro platelet aggregation inhibiting activities of the compounds of the invention were examined by using guinea pigs. Blood was withdrawn by cardiac puncture from male Hartley guinea pigs weighing […]. A mixture of a 3.8% trisodium citrate solution and the blood in a ratio of 1:9 was centrifuged at a speed of 800 rpm for 10 minutes. The upper layer was separated as platelet-rich plasma (PRP). The lower layer was further centrifuged at a separated as platelet-poor plasma (PPP). The number of platelets was adjusted to 5×10^5 /μl to 6×10^5 /μl by filuting the PRP with PPP. 25 microliters of the test compounds prepared as shown below was added in an amount of 25 microliters of PRP after the adjustment, and the mixture was pre-incubated at 37° C. for 2 minutes, and then 75 μM (final) of AA was added. By using an aggregometer (37° C., 1,100 rpm), changes in transmission were recorded.
The test compound was dissolved in ethanol to a concentration of 10 mg/ml. When its activity was measured, it was used after being diluted with phosphate buffer (pH 7.4). Furthermore, after dilution with the buffer, the test compound was left to stand at 0° C. for 4 hours, and the activity of the test compound was similarly measured.
The rate of inhibition of platelet aggregation was determined from the following equation. [formula]

[8] = Light stability in methanol solution; type: physicochemical
Description: 1 mg of compound (156) hydrochloride was dissolved in 100 ml of methanol. The solution was placed in a transparent glass test tube, and after the test tube was tightly stoppered, it was allowed to stand by the window of the laboratory. Part of the solution was taken at regular intervals and subjected to high performance liquid chromatograph to determined the remaining quantity of compound (156) hydrochloride contained in the solution. The same experiment was conducted with nicardipine hydrochloride as the control.

[9] = test system: conscious rats; assay: Antihypertensive activity by oral administration in conscious rats; type: in vivo, Male Wistar rats; conditions: 10 mg/kg oral
Description: When one hour or more passed after the rats were aroused, they were administered the test compound orally.
The blood pressure in the femoral artery was recorder and changes in the mean blood pressure were obtained from the following equation. [formula]

With `COC(=O)C1=C(C)NC(C)=C(C(=O)OCCN(C)Cc2ccccc2)C1c1cccc([N+](=O)[O-])c1F` (stereo not drawn) [(104) hydrochloride, 2-(N-Benzyl-N-methylamino)ethyl methyl 2,6-dimethyl-4-(2-fluoro-3-nitrophenyl)-1,4-dihydropyridine-3,5-dicarboxylate] the “relative vasodilative activity against papaverine” value ([1]; dosage 0.1 μg/kg) was 30 times and the “relative vasodilative activity against papaverine” value ([1]; dosage 1 μg/kg) was 50 times.

With `COC(=O)C1=C(C)NC(C)=C(C(=O)OCCN(C)Cc2ccccc2)C1c1cccc(Cl)c1F` (stereo not drawn) [(106) hydrochloride, 2-(N-Benzyl-N-methylamino)ethyl methyl 2,6-dimethyl-4-(3-chloro-2-fluorophenyl)-1,4-dihydropyridine-3,5-dicarboxylate] the “Changes in MBP” value ([2]; 10 mg/kg oral, 30 min.) was -56 ± 6 mmHg, the “Changes in MBP” value ([2]; 10 mg/kg oral, 60 min.) was -53 ± 11 mmHg and the “Changes in MBP” value ([2]; 10 mg/kg oral, 90 min.) was -46 ± 10 mmHg. For the same compound, the “Changes in MBP” value ([2]; 10 mg/kg oral, 2 hr.) was -47 ± 11 mmHg, the “Changes in MBP” value ([2]; 10 mg/kg oral, 3 hr.) was -39 ± 10 mmHg and the “Changes in MBP” value ([2]; 10 mg/kg oral, 5 hr.) was -37 mmHg. The “Changes in MBP” value ([2]; 10 mg/kg oral, 7 hr.) was -31 ± 7 mmHg.

With `COC(=O)C1=C(C)NC(C)=C(C(=O)OCC(C)(C)CN(C)Cc2ccccc2)C1c1cccc([N+](=O)[O-])c1F` (stereo not drawn) [(130) hydrochloride, 3-(N-Benzyl-N-methylamino)-2,2-dimethylpropyl methyl 2,6-dimethyl-4-(2-fluoro-3-nitrophenyl)-1,4-dihydropyridine-3,5-dicarboxylate] the ED20 [3] was 0.016 mg/kg, the “Duration T1/2 (half-life of hypotensive action)” value [3] was over 30 min and the “Changes in MBP” value ([2]; 3 mg/kg oral, 30 min.) was -67 ± 13 mmHg. The “Changes in MBP” value ([2]; 3 mg/kg oral, 60 min.) was -62 ± 13 mmHg, the “Changes in MBP” value ([2]; 3 mg/kg oral, 90 min.) was -60 ± 14 mmHg and the “Changes in MBP” value ([2]; 3 mg/kg oral, 2 hr.) was -54 ± 11 mmHg. For the same compound, the “Changes in MBP” value ([2]; 3 mg/kg oral, 3 hr.) was -48 ± 13 mmHg, the “Changes in MBP” value ([2]; 3 mg/kg oral, 5 hr.) was -40 mmHg and the “Changes in MBP” value ([2]; 3 mg/kg oral, 7 hr.) was -29 ± 8 mmHg. For the same compound, the “Changes in MBP” value ([4]; 0.5 min.) was -7 ± 1%, the “Changes in MBP” value ([4]; 1 min.) was -11 ± 1% and the “Changes in MBP” value ([4]; 2 min.) was -14 ± 1%. The “Changes in MBP” value ([4]; 5 min.) was -16 ± 2%, the “Changes in MBP” value ([4]; 10 min.) was -19 ± 3% and the “Changes in MBP” value ([4]; 15 min.) was -20 ± 3%. For the same compound, the ED20 [5] was 0.0147 mg/kg and the “Duration T1/2” value ([5]; dose 10) was 15 min.

In the case of `COC(=O)C1=C(C)NC(C)=C(C(=O)OCC(C)(C)CN(C)Cc2ccccc2)C1c1cccc(Cl)c1F` (stereo not drawn) [(156) hydrochloride, 3-(N-Benzyl-N-methylamino)-2,2-dimethylpropyl methyl 2,6-dimethyl-4-(3-chloro-2-fluorophenyl)-1,4-dihydropyridine-3,5-dicarboxylate], the ED20 [3] is reported as 0.0149 mg/kg, the “Duration T1/2 (half-life of hypotensive action)” value [3] is reported as 20 min and the “Changes in MBP” value ([2]; 3 mg/kg oral, 30 min.) is reported as -41 ± 8 mmHg. The “Changes in MBP” value ([2]; 3 mg/kg oral, 60 min.) was -39 ± 7 mmHg, the “Changes in MBP” value ([2]; 3 mg/kg oral, 90 min.) was -35 ± 5 mmHg and the “Changes in MBP” value ([2]; 3 mg/kg oral, 2 hr.) was -28 ± 6 mmHg. For the same compound, the “Changes in MBP” value ([2]; 3 mg/kg oral, 3 hr.) was -28 ± 6 mmHg, the “Changes in MBP” value ([2]; 3 mg/kg oral, 5 hr.) was -18 mmHg and the “Changes in MBP” value ([2]; 3 mg/kg oral, 7 hr.) was -20 ± 4 mmHg. For the same compound, the “Changes in FBF” value ([6]; 0.5 min.) was 0 ± 0%, the “Changes in FBF” value ([6]; 1 min.) was -1 ± 3% and the “Changes in FBF” value ([6]; 2 min.) was “+5 ± 5%”. The “Changes in FBF” value ([6]; 5 min.) was “+19 ± 5%”, the “Changes in FBF” value ([6]; 10 min.) was “+20 ± 10%” and the ED20 [5] was 0.0245 mg/kg. For the same compound, the “Duration T1/2” value ([5]; dose 30) was 8.5 min, the inhibition at 100 µM [7] was -1.9 ± 2.5% and the “light stability compared with nicardipine hydrochloride” value [8] was “better light stability than nicardipine hydrochloride”. The remaining at 2 h ([8]; light, 2 hr., read-out: Remaining percentage) was 100%, the remaining at 4 h ([8]; light, 4 hr., read-out: Remaining percentage) was 99% and the remaining at 6 h ([8]; light, 6 hr., read-out: Remaining percentage) was 100%.

In the case of `COC(=O)C1=C(C)NC(C)=C(C(=O)OCC(C)(C)CN(C)Cc2c(Cl)cccc2Cl)C1c1cccc(Cl)c1F` (stereo not drawn) [(202) hydrochloride, 3-(N-2,6-Dichlorobenzyl-N-methylamino)-2,2-dimethylpropyl methyl 2,6-dimethyl-4-(3-chloro-2-fluorophenyl)-1,4-dihydropyridine-3,5-dicarboxylate], the “Changes in mean blood pressure” value ([9]; after 30 min) is reported as -39 mmHg, the “Changes in mean blood pressure” value ([9]; after 60 min) is reported as -40 mmHg and the “Changes in mean blood pressure” value ([9]; after 90 min) is reported as -38 mmHg. The “Changes in mean blood pressure” value ([9]; after 2 hr) was -33 mmHg, the “Changes in mean blood pressure” value ([9]; after 3 hr) was -33 mmHg and the “Changes in mean blood pressure” value ([9]; after 5 hr) was -24 mmHg. For the same compound, the “Changes in mean blood pressure” value ([9]; after 7 hr) was -23 mmHg.

In the case of `COC(=O)C1=C(C)NC(C)=C(C(=O)OCC(C)(C)CN(C)Cc2ccccc2)C1c1cccc([N+](=O)[O-])c1` (stereo not drawn) [(302) hydrochloride, 3-(N-Benzyl-N-methylamino)-2,2-dimethylpropyl methyl 2,6-dimethyl-4-(3-nitrophenyl)-1,4-dihydropyridine-3,5-dicarboxylate], the ED20 [3] is reported as 0.0091 mg/kg and the “Duration T1/2 (half-life of hypotensive action)” value [3] is reported as over 30 min.

For `COC(=O)C1=C(C)NC(C)=C(C(=O)OCC(C)(C)CN(C)C)C1c1cccc(Cl)c1F` (stereo not drawn) [reference compound], the ED20 [5] was 0.0807 mg/kg and the “Duration T1/2” value ([5]; dose 100) was 4.6 min.

In the case of `COC(=O)C1=C(C)NC(C)=C(C(=O)OCC(C)(C)CN(C)C)C1c1cccc([N+](=O)[O-])c1Cl` (stereo not drawn) [reference compound], the ED20 [5] is reported as 0.288 mg/kg and the “Duration T1/2” value ([5]; dose 300) is reported as 3.5 min.
